Results as given in article PMC7766155, “Improved Stability and Activity of a Marine Peptide-N6NH2 against Edwardsiella tarda and Its Preliminary Application in Fish” (Marine Drugs, 2020).
≈ marks a conversion by molar mass, not a printed value. Where “and” joins values, the source holds several entries; their conditions need not be identical. Equal values may be shown once. Read-outs that look alike come from different tables or passages of the source. Where a SMILES comes first, the peptide text is derived from it. Bridges are numbered along the chain shown (N, C = ends).

Tests used:
[1] = system: RAW 264.7 macrophages; type: cell-based, mouse; conditions: 48 h
Experimental: The colorimetric MTT assay was used to determine the effect of peptides on the viability of murine peritoneal RAW 264.7 macrophage cells. Macrophage cells were added into 96-well plates (5 × 10^3 cells/well) and incubated for 24 h at 37 °C (5% (v/v) CO2/air). A series of peptide solutions were added into the cells and incubated for 48 h. The untreated cells were used as the control (Acontrol). The MTT solution was added into plates, incubated for 4 h, and then removed from plates. Dimethyl sulfoxide (DMSO) was then added into plates and the absorbance was measured at 570 nm in a spectrophotometer. The cell viability was calculated using the following formula: Survival rate (%) = […] × 100.

[2] = system: E. tarda; assay: Kirby-Bauer disk diffusion susceptibility; type: cell-based, Edwardsiella tarda; conditions: disc diffusion, MHA, 37 °C 18 h, CLSI standard; 27 antibiotics; Supplementary Table S2
Experimental: The susceptibility of E. tarda to antibiotics was determined by the Kirby-Bauer disk diffusion method according to Clinical Laboratory Standards Institute (CLSI). E. tarda was cultured in TSB medium (10 mL) at 28 °C overnight. The MHA petri dish plates were seeded with a 250 μL bacterial solution (OD600nm = 1.0). […] The diameter of the bacterial inhibition zone was measured, and the results were determined according to the standard of CLSI.

[3] = system: E. tarda; type: cell-based, Edwardsiella tarda
Experimental: (§1) All tests were conducted in triplicate.

[4] = system: E. coli CVCC1515; conditions: CVCC1515
[5] = system: E. coli CVCCO157; conditions: broth microdilution, MHB, 1 × 10^5 CFU/mL, 37 °C 18–24 h, n = 3; some N6 data from ref 19
[6] = system: S. enteritidis CVCC3377; conditions: CVCC3377
[7] = system: Staphylococcus hyicus; assay: microbe, parasite or virus in culture; type: cell-based
Experimental: as §1

[8] = system: Gram-negative bacteria (except Pseudomonas aeruginosa CICC21630); assay: MIC, range over strains; type: cell-based; conditions: range over Gram-negative strains of Table 2
Experimental: as §1

[9] = system: Staphylococcus aureus ATCC43300; conditions: ATCC43300
[10] = system: S. aureus ATCC546; conditions: ATCC546
[11] = system: E. tarda and A. veronii; type: cell-based
Experimental: as §1

[12] = system: S. pullorum CVCC1789; conditions: CVCC1789
[13] = system: Pseudomonas aeruginosa CICC21630; conditions: CICC21630
[14] = system: S. aureus ATCC25923; conditions: ATCC25923
[15] = system: S. hyicus 437-2
[16] = system: S. hyicus 15095
[17] = system: E. tarda; assay: pH stability (residual antibacterial activity, inhibition zone); type: physicochemical, Edwardsiella tarda; conditions: pH values of 2–10, 3 h incubation; N6 128 μg/mL, norfloxacin 10 μg/mL; inhibition zone method vs E. tarda
Experimental: (§2) To evaluate the thermal stability of peptides, N6 and N6NH2 were incubated for 1 h at 4, 20, 40, 60, 80 and 100 °C. To measure the pH stability, peptides were incubated for 3 h in 100 mM glycine-HCl buffer (pH 2.0), sodium acetate buffer (pH 4.0), sodium phosphate buffer (pH 6.0), Tris-HCl buffer (pH 8.0) or glycine-NaOH buffer (pH 10.0). In addition, peptides were incubated for 4 h at 37 °C in pepsin (3,000 U/mg, pH 2.0) and trypsin (250 U/mg, pH 8.0) (10:1, w/w) solutions, respectively. […] After treatment, 30 μL of solutions were taken out to determine the antibacterial activity of peptides against E. tarda by the inhibition zone method. The untreated peptides were used as the control. All tests were conducted in triplicate.

[18] = system: E. tarda; assay: Thermal stability (residual antibacterial activity, inhibition zone); type: physicochemical, Edwardsiella tarda; conditions: incubated 1 h at 20, 40, 60, 80 or 100 °C; N6NH2 64 μg/mL, norfloxacin 10 μg/mL; inhibition zone method; triplicate
Experimental: as §2

[19] = system: E. tarda; assay: Fish peritonitis model, histopathology; type: in vivo, O. niloticus; conditions: N6NH2 (10 mg/kg) or norfloxacin 1.29 mg/kg; hematoxylin and eosin, light microscope; 3 fish/group
Experimental: The spleen, kidney, liver, intestine and brain samples (3 fish/group) were used for tissue section observation. After 24 h of fixation, all samples were dehydrated with 75–95% ethanol, embedded in paraffin and cut to 6 μm thin sections. Sections were stained with hematoxylin and eosin and observed by a light microscope.

[20] = system: inner membrane of E. tarda; assay: Inner membrane penetration, PI staining, flow cytometry; type: cell-based, Edwardsiella tarda; conditions: norfloxacin-treated control, all time points of Figure 3B
Experimental: After washing twice with PBS, the cells were incubated with PI (50 μg/mL) for 15 min and analyzed using a FACS Calibur Flow Cytometer (BD, San Jose, CA, USA).

[21] = system: E. tarda cells; assay: TEM ultrastructure; type: cell-based, Edwardsiella tarda; conditions: 4 × MIC for 2 h, 1 × 10^8 CFU/mL
Experimental: Mid-log phase E. tarda cells (1 × 10^8 CFU/mL) were incubated with 4 × MIC N6 or N6NH2 for 2 h at 37 °C. The bacterial cells were then centrifuged, washed three times with 0.1 M PBS (pH 7.2) and fixed overnight at 4 °C with 2.5% glutaraldehyde. After washing twice with PBS, the cells were post-fixed with 1% osmium tetroxide (OsO4) for 2 h, dehydrated in a graded ethanol series (from 50% to 100%) for 15 min each time and dried by CO2. The cell samples were sputtered with gold-palladium and observed on a QUANTA200 electron microscopy (FEI, Philips, The Netherlands).
The bacterial cells were treated with peptides as described above, fixed with 2.5% glutaraldehyde at 4 °C overnight and post-fixed with 1% OsO4 for 1 h. After washing three times with PBS, the cells were dehydrated with a graded acetone series (50%, 70%, 85%, 95% and 100%, for 7 min each time) and immersed in mixtures of acetone and resin (3:1, 1:1 and 1:3, 40 min each time). The samples were infiltrated with a pure epoxy resin overnight, embedded in capsules containing embedding medium and polymerized at 45 °C for 3 h and at 65 °C for 24 h, respectively. Thin sections were cut using an ultramicrotome, stained with 1% uranyl acetate and examined by a JEM1400 (JEDL, Tokyo, Japan).

[22] = system: Edwardsiella tarda; assay: MIC, broth microdilution
[23] = system: Escherichia coli, S. typhimurium, S. enteritidis and S. pullorum; assay: organism not typed; type: cell-based; conditions: range over other Gram-negative strains of Table 2; read-out: MIC
Experimental: as §1

[24] = system: E. tarda; assay: Fish peritonitis model, survival; type: in vivo, O. niloticus; conditions: 1.29 mg/kg norfloxacin i.p. once
Experimental: The fish (O. niloticus, Gift strain, 20 g mean weight) were purchased from Beijing Fisheries Technology Extension Center, Hainan Station, China and were acclimated at 25 ± 1 °C. The fish were fed twice daily with commercial pellets for two weeks before experiments.
O. niloticus (6 fish/group) were intraperitoneally injected with LC100 of E. tarda, followed 30 min later by 200 µL N6NH2 (2.5, 5, and 10 mg/kg, respectively). Norfloxacin was used as a positive control. Fish injected with only bacteria or saline served as negative (untreated) or blank (unchallenged) controls, respectively. […] The fish survival rate was recorded daily for 5 d. Two independent experiments were conducted, including pre-experiment and formal experiment.

[25] = system: E. tarda; assay: Fish peritonitis model, bacterial translocation (organ load); type: in vivo, O. niloticus; conditions: 1.29 mg/kg norfloxacin i.p. once; 24 h after treatment
Experimental: Sixty fish were randomly divided into 6 groups (10 fish/group). […] The remaining untreated group served as negative control. The fish injected with saline were used as the blank control. The challenge and treatment were performed as described above. […] Other fish were used to analyze the effects on tissues and immune genes.

[26] = LPS binding, BODIPY-TR-cadaverine displacement; set-up: species or system E. coli; conditions: 0.5 µM LPS, 5 μM BC, Tris buffer pH 7.4; 0.049 μM to 50 μM; excitation/emission 580/620 nm

CC(C)[C@@H]1NC(=O)CNC(=O)[C@H](CC(N)=O)NC(=O)[C@H](CCCNC(=N)N)NC(=O)[C@H](Cc2ccc(O)cc2)NC(=O)[C@H](C(C)C)NC(=O)[C@@H](NC(=O)[C@@H](NC(=O)[C@H](CC(N)=O)NC(=O)[C@H](Cc2c[nH]c3ccccc23)NC(=O)[C@H](C)NC(=O)[C@H](Cc2ccccc2)NC(=O)CN)C(C)C)CSSC[C@@H](C(=O)N[C@@H](Cc2cnc[nH]2)C(=O)N[C@@H](CCCNC(=N)N)C(=O)N[C@@H](CCCNC(=N)N)C(=O)N[C@@H](C)C(=O)N[C@@H](CC(N)=O)C(=O)O)NC(=O)[C@H](C(C)C)NC(=O)[C@H](CCCNC(=N)N)NC1=O [Peptide N6] (H-GFAWNVCVYRNGVRVCHRRAN-OH; disulfide 7-16)
cell survival rate [1]: > 93.35%

CC1(C)S[C@@H]2[C@H](NC(=O)[C@H](N)c3ccc(O)cc3)C(=O)N2[C@H]1C(=O)O [amoxicillin]
susceptibility of E. tarda to antibiotics [2]: resistance

CC(C)[C@@H]1NC(=O)CNC(=O)[C@H](CC(N)=O)NC(=O)[C@H](CCCNC(=N)N)NC(=O)[C@H](Cc2ccc(O)cc2)NC(=O)[C@H](C(C)C)NC(=O)[C@@H](NC(=O)[C@@H](NC(=O)[C@H](CC(N)=O)NC(=O)[C@H](Cc2c[nH]c3ccccc23)NC(=O)[C@H](C)NC(=O)[C@H](Cc2ccccc2)NC(=O)CN)C(C)C)CSSC[C@@H](C(=O)N[C@@H](Cc2c[nH]cn2)C(=O)N[C@@H](CCCNC(=N)N)C(=O)N[C@@H](CCCNC(=N)N)C(=O)N[C@@H](C)C(=O)N[C@@H](CC(N)=O)C(N)=O)NC(=O)[C@H](C(C)C)NC(=O)[C@H](CCCNC(=N)N)NC1=O [Peptide N6NH2] (H-GFAWNVCVYRNGVRVCHRRAN-NH2; disulfide 7-16)
MBC [3]: 6.4 µg/mL (≈ 2.59 µM)
MIC [4]: 0.323 µM (≈ 0.799 µg/mL)
MIC [5]: 0.646 µM (≈ 1.6 µg/mL)
MIC [6]: 0.323 µM (≈ 0.799 µg/mL)
MIC [7]: 3.2 to 12.8 µg/mL
MIC [8]: 0.8 to 3.2 µg/mL
MIC [9]: 2.58 µM (≈ 6.39 µg/mL)
MIC [10]: 2.58 µM (≈ 6.39 µg/mL)
MIC [11]: 0.65 to 1.29 µM
MIC [12]: 1.29 µM (≈ 3.19 µg/mL)
MIC [13]: 10.34 µM (≈ 25.6 µg/mL)
MIC [14]: 5.17 µM (≈ 12.8 µg/mL)
MIC [15]: 5.17 µM (≈ 12.8 µg/mL)
MIC [16]: 1.29 µM (≈ 3.19 µg/mL)

CCn1cc(C(=O)O)c(=O)c2cc(F)c(N3CCNCC3)cc21 [Norfloxacin]
antibacterial activity at different pH values [17]: strong antibacterial activity
MIC ([7]; Staphylococcus hyicus, range over S. hyicus strains of Table 2, read-out: MIC): 4 to 16 µg/mL (≈ 12.5 to 50.1 µM)
antimicrobial activity against E. tarda after exposure to temperature [18]: did not change
histological findings in liver, kidney and intestine [19]: obvious pathological changes were found in organs
percentage of E. tarda stained with PI [20]: less than 1%
abnormal cells (TEM) [21]: not significantly affected
MIC [22]: 0.5 µg/mL and 1.57 µM
MIC [23]: 0.06 to 1 µg/mL (≈ 0.188 to 3.13 µM)
survival rate of fish ([24]; 0.5 h after E. tarda 1.0 × 10^9 CFU/mL i.p., within 2 d, 6 fish/group): 16.7%
survival rate of fish ([24]; time not stated in the sentence (survival recorded for 5 d)): 16.7%
number of bacteria in organs (blood, spleen, kidney, liver) [25]: did not decrease in any organs except the liver

bacitracin
susceptibility of E. tarda to antibiotics [2]: resistance

CC(C)[C@@H]1NC(=O)CNC(=O)[C@H](CC(N)=O)NC(=O)[C@H](CCCNC(=N)N)NC(=O)[C@H](Cc2ccc(O)cc2)NC(=O)[C@H](C(C)C)NC(=O)[C@@H](NC(=O)[C@@H](NC(=O)[C@H](CC(N)=O)NC(=O)[C@H](Cc2c[nH]c3ccccc23)NC(=O)[C@H](C)NC(=O)[C@H](Cc2ccccc2)NC(=O)CN)C(C)C)CSSC[C@@H](C(=O)N[C@@H](Cc2cnc[nH]2)C(=O)N[C@@H](CCCNC(=N)N)C(=O)N[C@@H](CCCNC(=N)N)C(=O)N[C@@H](C)C(=O)N[C@@H](CC(N)=O)C(N)=O)NC(=O)[C@H](C(C)C)NC(=O)[C@H](CCCNC(=N)N)NC1=O [Peptide N6NH2] (H-GFAWNVCVYRNGVRVCHRRAN-NH2; disulfide 7-16)
cell survival rate [1]: > 93.35%

O=C1OCCN1/N=C/c1ccc([N+](=O)[O-])o1 [furazolidone]
susceptibility of E. tarda to antibiotics [2]: resistance

CC1(C)S[C@@H]2[C@H](NC(=O)[C@H](N)c3ccccc3)C(=O)N2[C@H]1C(=O)O [ampicillin, reference compound]
binding to LPS (displacement of BC probe) [26]: neither ampicillin nor norfloxacin replaced the BC probe or bound to LPS
